Source: patent publication US5712160A, “Method of stimulating growth using neurotrophic peptides” (Board of Regents, The University of Texas System, priority 1995, dated 1998)
“And” between values parts separate entries of the source, which are not always exact repeats. Identical values can stand only once. “Also recorded” adds a separate entry of the source. Residues, ends and D or L forms follow the SMILES beside them. No end group written: not given here.

Key:
PC12 cells = assay type: cell-based, rat
Method: Cell Culture. Stock cultures of PC12 cells are maintained in a medium consisting of RPMI 1640 supplemented with (v/v) 5% fetal calf serum and 5% horse serum ("complete medium"). At alternate feedings, media containing 1% PSN antibiotic mixture is used, consisting of 5 mg penicillin +5 mg streptomycin +10 mg neomycin/ml. Cells are grown in a humidified atmosphere containing 5% CO2. Cells are split once weekly in a 1:12 ratio by vigorous shaking and trituration. For experiments, PC12 cells are dislodged by shaking, centrifuged at 800×g, diluted in Puck's saline, counted in a hemocytometer, and plated on poly-D-lysine coated polystyrene tissue culture pates. For experiments to be performed in defined, serum-free medium, a modification of the N1 medium of Bottenstein et al. is used consisting of RPMI 1640 supplemented with insulin 5 ug/ml, transferrin 5 ug/ml, 20 nM progesterone, 100 μM putrescine, and 30 nM sodium selenite. Cells are plated in complete medium and allowed to attach overnight before washing twice with serum-free RPMI and addition of N1 medium. For experiments. examining effects of NGF on cell survival following serum deprivation, cells are plated in complete medium and allowed to attach overnight. Cells are then washed once with RPMI containing sheep anti-mouse beta-NGF to remove any residual NGF from serum. After washing once in RPMI, cells receive varying doses of NGF in RPMI. Media is changed on the third day of serum deprivation. On the fourth day, viability is assessed by ^35 S-methionine incorporation into trichloroacetic acid precipitable proteins. The effects of NGF on the response of PC12 cells to peptides is also examined by reduction of the dye 3, (4,5-dimethylthiazol-2-yl)-2,5-diphenyl-tetrazolium (MTT). For experiments using MTT, cells (1×10^4) are plated on poly-D-lysine coated 6 mm wells (96 well plates). Cells are allowed to attach overnight before addition of NGF and/or peptide. After 24 hr, media is removed and replaced with RPMI 1640 medium without serum. Following a 24 hour recovery period, each well is incubated with MTT for 4 hours at 37° C. Formaxan crystals are then solubilized in isopropanol containing 0.04N HCl and plates read on an ELISA reader using test and reference wavelengths of 570 and 630 nm, respectively. All statistics are performed by computer-assisted methods using the Number Cruncher for Statistical Sciences (NCSS) package. […]
The survival of PC12 cells was measured as a function of the amount of peptide P4.
Cells were plated out as mentioned above in RPMI 1640 without serum but in the presence of a fixed amount of NGF with varying amounts of peptide from 0.1 to 100 ug/ml (day one). […] The incorporation of ^35 S-Met into protein was determined by TCA precipitation and protein assay.

labelled NGF = labelled NGF (Homo sapiens, UniProt P01138); assay: Binding of labelled NGF to peptide fixed on a membrane disc/filter
Chain of labelled NGF (P01138 122-241): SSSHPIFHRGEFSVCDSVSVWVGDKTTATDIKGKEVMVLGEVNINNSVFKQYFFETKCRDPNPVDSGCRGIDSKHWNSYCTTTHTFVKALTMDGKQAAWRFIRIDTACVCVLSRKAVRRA
Method: Membrane discs were placed into wells of 96 well plate. Peptide (for example 265 ng/ul) was spotted on each disc. Series dilutions of peptide were used to assure the binding. The disc was dried at 37° C. (or 40° C.) for 1 hour. […] 4% BSA TBS was added to each well. An amount of labelled NGF was added to each well, followed by incubation in 4% BSA TBS. Each disc was washed 4 times with 200 ul TBS (5 minute interval). The discs were transferred to counting vial and counted.
Peptide P4 was attached to a solid matrix at various concentrations and the binding of labeled NGF measured to these various concentrations of bound P4. It is noted that an apparent maximal binding was achieved when about 3 μg of peptide P4 were bound. FIG. 4 illustrates how differing amounts of peptide bound differing amounts of labelled NGF. Here the peptide is fixed to a filter in varying amounts, then exposed to constant amounts of labelled NGF and washed extensively to displace unspecifically bound radioactivity. […] The specific augmentation of NGF effects may thus be understood when small amounts of peptide are added.

[1] = tested on: PC12 cells transplanted into rat cortex; assay: Transplant of pretreated PC12 cells into lesioned rat brain, NGF receptor immunohistochemistry (Ig192); assay type: in vivo; settings: cells treated in vitro two weeks; rat cortex stab wound; two weeks after transplant
Method: PC12 cells were treated with nerve growth factor (NGF) or peptide P4 in vitro for two weeks. The cells were then transplanted into a rat cortex at the site of the stab wound or 6-hydroxy dopamine-induced lesion. Two weeks after the transplant of the P12 cells, the animal brain was processed for immunohistochemistry by staining with monoclonal antibody to NGF receptor (Ig192). […] The stab-wound lesions carried out by inserting a 24 gauge needle into a stereotoxicly fixed animal so as to lesion motor cortex. Cells were then deposited with the same needle into the wound cavity.
The 6-hydroxydopamine lesions were carried out by injecting […] stereotoxicly into striatum with a needle two weeks prior to transplantation and/or treatment of animals.

[2] = tested on: NGF receptor on PC12 cells
Method: Competitive binding assay. The following method of binding assay was carried out: precoat the 24-well plates were precoated with cytochrome C and the PC12 cells plated overnight as mentioned above. The ^125 I labeled NGF was added at 5 ng/ml in the presence of different doses of peptide from 4 ug/ml to 50 ug/ml. […] These peptides are very acidic and NGF is very basic.
In another experiment 24-well plates were precoated with poly-D-Lys at 0.06 mg/ml for 15 minutes and PC12 cells plated overnight at 1×10^5 cells/well in RPMI 1640 with serum conditioned media. The ^125 I-NGF was added at, e.g., 5 ng/ml, in the presence of varying amounts of peptide from 0.01 ug/ml to 50 ug/ml in Hepes buffer with 1 mg/ml BSA. The cells were incubated at rt. for 1 hour then washed with PBS three times and lysed with 0.5N NaOH. The radioactivity was then measured. Protein concentrations of the aliquots were determined by Lowry assay.

NGFR-I = settings: high affinity, low capacity binding site; read-out: equilibrium dissociation constant (Kd) of NGF binding; cited from earlier work
NGFR-II = molecular target: T1, NGFR-II (Homo sapiens, UniProt P08138); settings: low affinity, high capacity binding site; read-out: equilibrium dissociation constant (Kd) of NGF binding; cited from earlier work
T1 sequence (P08138 29-427): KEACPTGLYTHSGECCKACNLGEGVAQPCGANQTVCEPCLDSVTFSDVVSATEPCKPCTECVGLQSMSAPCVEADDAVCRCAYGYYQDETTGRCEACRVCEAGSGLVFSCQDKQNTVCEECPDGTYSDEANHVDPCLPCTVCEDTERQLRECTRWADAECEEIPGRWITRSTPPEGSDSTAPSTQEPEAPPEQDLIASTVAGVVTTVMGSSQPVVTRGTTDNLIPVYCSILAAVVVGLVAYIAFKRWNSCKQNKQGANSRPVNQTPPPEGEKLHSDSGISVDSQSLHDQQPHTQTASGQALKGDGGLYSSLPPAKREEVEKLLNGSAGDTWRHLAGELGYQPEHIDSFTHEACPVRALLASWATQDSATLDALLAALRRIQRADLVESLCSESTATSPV

CC(C)[C@H](NC(=O)[C@@H](NC(=O)[C@H](CC(N)=O)NC(=O)[C@H](CCC(N)=O)NC(=O)[C@H](CCCCN)NC(=O)[C@H](CC(=O)O)NC(=O)[C@H](CCC(N)=O)NC(=O)[C@@H](N)CS)[C@@H](C)O)C(=O)N[C@@H](CS)C(=O)N[C@@H](CCC(=O)O)C(=O)N[C@@H](CCC(=O)O)C(=O)N[C@@H](CS)C(=O)N1CCC[C@H]1C(=O)N[C@@H](CCC(=O)O)C(=O)O [P4, Cys--Gln--Asp--Lys--Gln--Asn--Thr--Val--Cys--Glu--Glu--Cys--Pro--Glu--OH] (H-CQDKQNTVCEECPE-OH; N-terminus assumed)
PC12 cell protein synthesis activity (FIG. 6B) (PC12 cells; NGF concentrations of 0.1 to 10 ng/ml): trophic effects | peptide concentration at maximal PC12 cell survival (FIG. 3) (PC12 cells; in the presence of 2 ng/ml NGF): 5 µg | increase in protein synthesized (35S-Met incorporation) (PC12 cells; peptide 0.1 ug/ml, serum-free, fixed amount of NGF, day four): 20% | amount of bound peptide at apparent maximal binding of labeled NGF (FIG. 4) (labelled NGF; peptide fixed to filter, constant amount of labelled NGF): about 3 μg | binding of labelled NGF to fixed peptide (labelled NGF; varying amounts of peptide on filter, washed extensively): saturation indicative of specific binding of NGF to peptide | NGF receptor immunostaining of transplanted PC12 cells (FIG. 8B vs 8A) [1]: significantly greater NGF receptor; also recorded: denser accumulation of NGF receptor sites | binding of labeled NGF to PC12 cells (FIG. 5) ([2]; lower peptide concentrations measured (1.3 μg)): amplified | displacement of bound labeled NGF from PC12 cells (FIG. 5) ([2]; peptide at concentrations higher than about 1.5 μg): effective in displacing bound labeled NGF | increase in binding of 125I-NGF to its receptor ([2]; peptide within 0.01-0.1 ug/ml range, 125I-NGF 5 ng/ml, PC12 cells, 1 hour rt): 50%

NGF: Nerve growth factor, a neurotrophic protein; only the β-NGF subunit has nerve growth promoting activity
displacement of labeled NGF from PC12 cells (FIG. 1) ([2]; 10 micrograms unlabeled NGF or peptide, various concentrations of free labeled NGF): more effective in displacing labeled NGF than most of the synthetic peptides | Kd (NGFR-I): ~0.01 nM and 0.01 nM | Kd (NGFR-II): ~1 nM and 1 nM

Tyr--Cys--Gln--Asp--Lys--Gln--Asn--Thr--Val--Cys--Glu--Glu--Cys--Pro--Glu--OH (YCQDKQNTVCEECPE-OH; cysteine pairing not given here) [P5]
PC12 cell survival during serum deprivation (FIG. 6) (PC12 cells; in the presence of 0.5 ng/ml NGF): enhancement of cell survival
